The source of these data is paper PMC11855827, “High-Throughput Screening of Five Compound Libraries for Anthelmintic Activity and Toxicity Leads to the Discovery of Two Flavonoid Compounds” (International Journal of Molecular Sciences, 2025).

The test deals with C. elegans. Briefly: microbe, parasite or virus in culture. As to conditions: Caenorhabditis elegans.
[1] abbreviates: 0 h, read-out: Percentage of motility inhibition 0 h, Table S2, C. elegans SS assay, 110 μM, 0 h, averages of 4 data points.
Where [2] appears, read: 24 h, read-out: Percentage of motility inhibition 24 h, Table S2, C. elegans SS assay, 110 μM, 24 h, averages of 4 data points.
Setting [3] is: 0 h, read-out: Percentage of motility inhibition 0 h.
The mark [4] stands for this setting: 24 h, read-out: Percentage of motility inhibition 24 h.

Where two headings read alike, the source gives them in different places.

Broadly, the inhibition is the drop in the measured response relative to a control, in per cent. Turning to `CC(=O)OC(C)(C)/C=C/C(=O)[C@](C)(O)[C@H]1[C@H](O)C[C@@]2(C)[C@@H]3CC=C4[C@@H](C=C(O)C(=O)C4(C)C)[C@]3(C)C(=O)C[C@]12C` [Cucurbitacin E], the inhibition at 110 µM worked out at 0% under setting [1] and 11% under setting [2].

In the case of `CC(C)(O)/C=C/C(=O)[C@](C)(O)[C@H]1[C@H](O)C[C@@]2(C)[C@@H]3CC=C4[C@@H](C=C(O)C(=O)C4(C)C)[C@]3(C)C(=O)C[C@]12C` [Cucurbitacin I], the inhibition at 110 µM reads like this: under setting [1], 0%; under setting [2], 23%.

With `CC1=C[C@]2(O)O[C@@]3(CC2=C(C)C)[C@@H](C)CC[C@@H]13` [Curcumenol], the inhibition at 110 µM worked out at 0% under setting [1] and 38% under setting [2].

As to `C=CC1(C)Cc2occ(C)c2C(=O)C1C(=C)C` (stereo not shown) [Curzerenone], the inhibition at 110 µM came out at 10% under setting [1] and 9% under setting [2].

For the compound `COc1cc(/C=C/C(=O)O[C@H]2CC[C@]34C[C@]35CC[C@]3(C)[C@@H]([C@H](C)CCC=C(C)C)CC[C@@]3(C)[C@@H]5CC[C@H]4C2(C)C)ccc1O` [Cycloartenyl ferulate], the inhibition at 110 µM turned out to be 35% under setting [1] and 21% under setting [2].

Turning to `C[C@@H]1C[C@@H]([C@H](O)CC2CC(=O)NC(=O)C2)C(=O)[C@@H](C)C1` [Cycloheximide], the inhibition at 110 µM came to 17% under setting [1] and 0% under setting [2].

With `CC1=C2C[C@H]3[C@@H](CC=C4C[C@@H](O)CC[C@@]43C)[C@@H]2CC[C@]12O[C@@H]1C[C@H](C)CN[C@H]1[C@H]2C` [Cyclopamine], the inhibition at 110 µM under setting [3] came to 0% and the inhibition at 110 µM under setting [4] was determined as 14%.

As for `CC(=O)C1=C(O)[C@@H]2[C@H]3c4c[nH]c5cccc(c45)C[C@H]3C(C)(C)N2C1=O` [Cyclopiazonic acid], the inhibition at 110 µM reads like this: under setting [1], 6%; under setting [2], 2%.

For `CC(C1CC1)C(O)(Cn1cncn1)c1ccc(Cl)cc1` (stereo not shown) [Cyproconazole], the inhibition at 110 µM under setting [1] worked out at 42% and the inhibition at 110 µM under setting [2] was determined as 0%.

Take `Nc1ccn([C@@H]2O[C@H](CO)[C@@H](O)[C@H]2O)c(=O)n1` [Cytidine]: the inhibition at 110 µM by setting is: under setting [1], 12%; under setting [2], 5%.

`OC[C@@H](O)[C@@H](O)[C@H](O)[C@H](O)CO` [D-Mannitol]: the inhibition at 110 µM is, setting by setting: under setting [1], 11%; under setting [2], 0%.

As for `CC(C)(CO)[C@@H](O)C(=O)NCCC(=O)O` [D-Pantothenic acid], the inhibition at 110 µM by setting is: under setting [1], 9%; under setting [2], 10%.

Regarding `OC[C@@H](O)[C@@H](O)[C@H](O)[C@@H](O)CO` [D-Sorbitol], the inhibition at 110 µM is, setting by setting: under setting [1], 0%; under setting [2], 7%.

For the compound `COC(=O)N[C@H](C(=O)N1CCC[C@H]1c1nc(-c2ccc(-c3ccc(-c4c[nH]c([C@@H]5CCCN5C(=O)[C@@H](NC(=O)OC)C(C)C)n4)cc3)cc2)c[nH]1)C(C)C` [Daclatasvir], the inhibition at 110 µM under setting [1] was found to be 44% and the inhibition at 110 µM under setting [2] stood at 43%.

`C=C(CCC=C(C)C)[C@H]1CC[C@]2(C)[C@@H]1[C@H](O)C[C@@H]1[C@@]3(C)C[C@@H](O)[C@H](O[C@@H]4O[C@H](CO)[C@@H](O)[C@H](O)[C@H]4O[C@@H]4O[C@H](CO)[C@@H](O)[C@H](O)[C@H]4O)C(C)(C)[C@@H]3CC[C@]12C` [Damulin B]: the inhibition at 110 µM was 9% under setting [1] and 16% under setting [2].

Regarding `CC(C)(C)OC(=O)N[C@H]1CCCCC/C=C\[C@@H]2C[C@@]2(C(=O)NS(=O)(=O)C2CC2)NC(=O)[C@@H]2C[C@@H](OC(=O)N3Cc4cccc(F)c4C3)CN2C1=O` [Danoprevir], the inhibition at 110 µM runs as follows: under setting [1], 60%; under setting [2], 24%.

As for `O=C1c2cccc(O)c2C(=O)c2c(O)cccc21` [Danthron], the inhibition at 110 µM under setting [1] amounted to 21% and the inhibition at 110 µM under setting [2] stood at 9%.

Take `O=c1ccc2ccc(O)c(O)c2o1` [Daphnetin]: the inhibition at 110 µM is, setting by setting: under setting [1], 0%; under setting [2], 1%.

For `Cc1cc(C)c(Nc2ccnc(Nc3ccc(C#N)cc3)n2)c(C)c1` [Dapivirine], the inhibition at 110 µM under setting [1] came out at 44% and the inhibition at 110 µM under setting [2] was 4%.

As for `Nc1ccc(S(=O)(=O)c2ccc(N)cc2)cc1` [Dapsone], the inhibition at 110 µM reads like this: under setting [1], 42%; under setting [2], 24%.

With `CCCCCCCCCC(=O)N[C@@H](Cc1c[nH]c2ccccc12)C(=O)N[C@H](CC(N)=O)C(=O)N[C@@H](CC(=O)O)C(=O)N[C@@H]1C(=O)NCC(=O)N[C@@H](CCCN)C(=O)N[C@@H](CC(=O)O)C(=O)N[C@H](C)C(=O)N[C@@H](CC(=O)O)C(=O)NCC(=O)N[C@H](CO)C(=O)N[C@@H]([C@H](C)CC(=O)O)C(=O)N[C@@H](CC(=O)c2ccccc2N)C(=O)O[C@@H]1C` [Daptomycin], the inhibition at 110 µM is 3% under setting [1] and 8% under setting [2].

`CC(C)CN(C[C@@H](O)[C@H](Cc1ccccc1)NC(=O)O[C@H]1CO[C@H]2OCC[C@H]21)S(=O)(=O)c1ccc(N)cc1` [Darunavir]: the inhibition at 110 µM under setting [3] worked out at 39% and the inhibition at 110 µM under setting [4] was 26%.

Consider `CC1(C)[C@H](O)CC[C@@]2(C)[C@@H]3CC[C@](C)([C@@H](O)CO[C@@H]4O[C@H](CO)[C@@H](O)[C@H](O)[C@H]4O)C=C3CC[C@H]12` [Darutoside], for which the inhibition at 110 µM turned out to be 2% under setting [1] and 9% under setting [2].

In the case of `COc1cc2c(cc1OC)[C@@H](Cc1ccc(Oc3cc(C[C@@H]4c5cc(OC)c(OC)cc5CCN4C)ccc3O)cc1)N(C)CC2` [Dauricine], the inhibition at 110 µM reads like this: under setting [3], 2%; under setting [4], 9%.

For `CCCCCCCCCCOc1cc2c(O)c(C(=O)OCC)cnc2cc1OCC` [Decoquinate], the inhibition at 110 µM is, setting by setting: under setting [1], 13%; under setting [2], 1%.

Take `COc1cc2c(cc1OC)[C@@H]1C(=O)c3ccc4c(c3O[C@@H]1CO2)C=CC(C)(C)O4` [Deguelin]: the inhibition at 110 µM by setting is: under setting [1], 0%; under setting [2], 0%.

As to `CC(C)c1ccc2c(c1)CC[C@H]1[C@](C)(C(=O)O)CCC[C@]21C` [Dehydroabietic acid], the inhibition at 110 µM is, setting by setting: under setting [1], 4%; under setting [2], 17%.

On to `CC(=O)C1C(=O)C=C(C)OC1=O` (stereo not shown) [Dehydroacetic acid], for which the inhibition at 110 µM is 45% under setting [1] and 17% under setting [2].

In the case of `COc1cc2c(cc1OC)-c1c(C)c3ccc(OC)c(OC)c3c[n+]1CC2` [Dehydrocorydaline], the inhibition at 110 µM is, setting by setting: under setting [1], 4%; under setting [2], 0%.

With `C=C1CC[C@H]2C(=C)CC[C@H]3C(=C)C(=O)O[C@@H]3[C@@H]12` [Dehydrocostus Lactone], the inhibition at 110 µM is 0% under setting [1] and 24% under setting [2].

For the compound `COc1cc2c3c(cc4ccccc4c3c1OC)N(C)CC2` [Dehydronuciferine], the inhibition at 110 µM by setting is: under setting [1], 6%; under setting [2], 6%.

Consider `C=C(CC[C@@H](C(=O)O)[C@H]1[C@H](O)C[C@@]2(C)C3=CC[C@H]4C(C)(C)[C@@H](O)CC[C@]4(C)C3=CC[C@]12C)C(C)C` [Dehydrotumulosic acid], for which the inhibition at 110 µM is 11% under setting [1] and 21% under setting [2].

Consider `C[C@]1(COc2ccc(N3CCC(Oc4ccc(OC(F)(F)F)cc4)CC3)cc2)Cn2cc([N+](=O)[O-])nc2O1` [Delamanid], for which the inhibition at 110 µM is, setting by setting: under setting [1], 42%; under setting [2], 21%.

With `CCN1C[C@]2(COC)CC[C@H](O)[C@]34C1[C@@](O)([C@@H](OC)[C@H]23)[C@@]1(O)C[C@H](OC)[C@H]2C[C@@H]4[C@@H]1[C@H]2OC` [Delsoline], the inhibition at 110 µM is, setting by setting: under setting [1], 5%; under setting [2], 0%.

On to `CCN1C[C@]2(C)CC[C@H](OC)[C@@]34C1[C@]1(OCO[C@@]15C[C@H](OC)[C@H]1C[C@]3(O)[C@@H]5[C@H]1OC)[C@@H](OC(C)=O)[C@H]24` [Deltaline], for which the inhibition at 110 µM under setting [1] stood at 0% and the inhibition at 110 µM under setting [2] worked out at 0%.

Regarding `C[C@H](CCC(=O)O)[C@H]1CC[C@H]2[C@@H]3CC[C@@H]4C[C@H](O)CC[C@]4(C)[C@H]3C[C@H](O)[C@]12C` [Deoxycholic acid], the inhibition at 110 µM is, setting by setting: under setting [1], 29%; under setting [2], 12%.

As for `C[C@H]1O[C@@H](O[C@H]2CC[C@@]3(C)[C@H](CC[C@@H]4[C@@H]3C[C@@H](O)[C@]3(C)[C@@H](C5=CC(=O)OC5)CC[C@]43O)C2)C[C@H](O)[C@@H]1O[C@H]1C[C@H](O)[C@H](O[C@H]2C[C@H](O)[C@H](O[C@@H]3O[C@H](CO)[C@@H](O)[C@H](O)[C@H]3O)[C@@H](C)O2)[C@@H](C)O1` [Deslanoside], the inhibition at 110 µM reads like this: under setting [1], 5%; under setting [2], 5%.

Regarding `CC(=O)Oc1cccc2c1C(=O)c1c(OC(C)=O)cc(C(=O)O)cc1C2=O` [Diacerein], the inhibition at 110 µM by setting is: under setting [1], 0%; under setting [2], 8%.

`COc1ccc(Cc2cnc(N)nc2N)cc1OC` [Diaveridine]: the inhibition at 110 µM is, setting by setting: under setting [1], 17%; under setting [2], 32%.

With `Oc1ccc(Cl)cc1Cc1cc(Cl)ccc1O` [Dichlorophen], the inhibition at 110 µM is, setting by setting: under setting [1], 15%; under setting [2], 0%.

As to `N#CC(c1ccc(Cl)cc1)c1c(Cl)cc(-n2ncc(=O)[nH]c2=O)cc1Cl` (stereo not shown) [Diclazuril], the inhibition at 110 µM reads like this: under setting [1], 28%; under setting [2], 44%.

In the case of `O=c1[nH]cnc2c1ncn2[C@H]1CC[C@@H](CO)O1` [Didanosine], the inhibition at 110 µM is 22% under setting [1] and 7% under setting [2].

As to `C[C@H]1O[C@@H](O[C@H]2[C@@H](O)C[C@H](O[C@H]3[C@@H](O)C[C@H](O[C@H]4CC[C@@]5(C)[C@H](CC[C@@H]6[C@@H]5CC[C@]5(C)[C@@H](C7=CC(=O)OC7)CC[C@]65O)C4)O[C@@H]3C)O[C@@H]2C)C[C@H](O)[C@@H]1O` [Digitoxin], the inhibition at 110 µM worked out at 0% under setting [1] and 3% under setting [2].

As to `COc1cc(CNC(=O)CCCCCCC(C)C)ccc1O` [Dihydrocapsaicin], the inhibition at 110 µM was found to be 0% under setting [1] and 7% under setting [2].
